One block for each molecule: values may come before it. Activity calls are given as the source filed them. No cut-off for these calls is given here.
Key:
[1] = tested on: Calcium-activated potassium channel subunit alpha-1 (Homo sapiens), Q12791 [UNDEFINED MUTATION]; assay: (§1) Activation of hyperactive human BKca channel G803D/N806K mutant transfected in human AD-293 cells assessed as maximum relative fluorescence value at 5 uM preincubated for 15 mins followed by Tl+ stimulus buffer addition and measured after 80 sec by Flexstation3 multimode microplate reader analysis relative to control; format: cell-based; details: time 980.0 sec
Chain of Calcium-activated potassium channel subunit alpha-1 (Homo sapiens), Q12791 [UNDEFINED MUTATION] (Q12791 whole entry, looked up, stated change not applied): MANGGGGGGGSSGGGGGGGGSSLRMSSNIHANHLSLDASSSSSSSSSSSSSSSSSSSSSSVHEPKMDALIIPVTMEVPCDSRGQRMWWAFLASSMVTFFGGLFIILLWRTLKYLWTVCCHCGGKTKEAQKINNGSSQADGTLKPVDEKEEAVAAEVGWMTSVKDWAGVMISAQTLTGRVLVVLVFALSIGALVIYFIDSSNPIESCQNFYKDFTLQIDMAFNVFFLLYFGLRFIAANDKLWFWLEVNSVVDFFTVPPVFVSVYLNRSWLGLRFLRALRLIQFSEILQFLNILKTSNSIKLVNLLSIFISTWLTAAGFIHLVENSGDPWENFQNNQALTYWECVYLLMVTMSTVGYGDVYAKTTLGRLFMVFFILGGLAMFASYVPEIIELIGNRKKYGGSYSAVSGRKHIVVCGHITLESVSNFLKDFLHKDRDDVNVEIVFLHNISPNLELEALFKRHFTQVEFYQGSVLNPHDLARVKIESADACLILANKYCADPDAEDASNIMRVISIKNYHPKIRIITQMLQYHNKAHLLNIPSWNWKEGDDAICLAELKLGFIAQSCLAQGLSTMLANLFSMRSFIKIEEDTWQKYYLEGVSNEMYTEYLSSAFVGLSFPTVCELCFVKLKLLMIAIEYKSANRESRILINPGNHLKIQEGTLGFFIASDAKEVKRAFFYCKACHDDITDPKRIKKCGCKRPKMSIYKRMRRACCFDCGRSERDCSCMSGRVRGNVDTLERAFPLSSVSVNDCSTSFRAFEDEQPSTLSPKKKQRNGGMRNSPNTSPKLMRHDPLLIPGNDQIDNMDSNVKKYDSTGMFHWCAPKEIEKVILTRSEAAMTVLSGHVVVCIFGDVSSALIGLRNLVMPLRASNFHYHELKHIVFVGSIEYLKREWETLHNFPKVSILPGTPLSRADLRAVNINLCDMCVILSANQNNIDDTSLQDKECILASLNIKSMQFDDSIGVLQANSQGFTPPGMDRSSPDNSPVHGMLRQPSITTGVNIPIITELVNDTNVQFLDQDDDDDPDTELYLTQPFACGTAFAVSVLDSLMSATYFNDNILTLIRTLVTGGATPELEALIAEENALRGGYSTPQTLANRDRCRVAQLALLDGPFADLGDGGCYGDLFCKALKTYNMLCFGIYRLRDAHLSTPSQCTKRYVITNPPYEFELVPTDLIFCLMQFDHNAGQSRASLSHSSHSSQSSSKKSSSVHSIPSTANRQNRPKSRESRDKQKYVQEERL

[2] = tested on: Calcium-activated potassium channel subunit alpha-1 (Homo sapiens), Q12791 [UNDEFINED MUTATION]; assay: (§2) Activation of hyperactive human BKca channel G803D/N806K mutant transfected in human AD-293 cells incubated for 15 mins by Flexstation3 multimode microplate reader analysis; format: cell-based
[3] = Metabolic stability in human liver microsomes assessed as parent compound remaining at 1 uM preincubated for 5 mins followed by NADPH addition and measured after 30 mins by LC-MS/MS analysis; format: ADME, Microsome; details: read-out: Stability
[4] = Metabolic stability in human liver microsomes assessed as parent compound remaining at 1 uM preincubated for 15 mins followed by UDPGA addition and measured after 60 mins by LC-MS/MS analysis; format: ADME, Microsome; details: time 75 min, read-out: Stability
[5] = molecular target: Calcium-activated potassium channel subunit alpha-1 (Homo sapiens, UniProt Q12791, G803D/N806K); assay: as §2; format: cell-based
Chain of Calcium-activated potassium channel subunit alpha-1 (Q12791 whole entry, looked up, stated change not applied): as above

[6] = Metabolic stability in rat liver microsomes assessed as parent compound remaining at 1 uM preincubated for 5 mins followed by NADPH addition and measured after 30 mins by LC-MS/MS analysis; format: ADME, Microsome; details: read-out: Stability
[7] = Permeability of compound at pH 7.4 measured after 4 hrs by GIT-PAMPA assay; format: ADME; details: read-out: permeability
[8] = Metabolic stability in rat liver microsomes assessed as parent compound remaining at 1 uM preincubated for 15 mins followed by UDPGA addition and measured after 60 mins by LC-MS/MS analysis; format: ADME, Microsome; details: time 75 min, read-out: Stability
[9] = tested on: Calcium-activated potassium channel subunit alpha-1 (Homo sapiens), Q12791 [UNDEFINED MUTATION]; assay: as §1, with “assessed as fold change in maximum relative” for “assessed as maximum relative”, “reader analysis” for “reader analysis relative to control”; format: cell-based; details: filed as opener, time 980.0 sec
Oocyte = assay: Activation of rat BKca channel extracted from Xenopus laevis Oocytes assessed as left shift in G-V curve at 5 uM by patch-clamp electrophysiology recordings; format: cell-based; details: filed as opener
[10] = tested on: Calcium-activated potassium channel subunit alpha-1 (Homo sapiens), Q12791 [UNDEFINED MUTATION]; assay: as §1, with “at 1” for “at 5”; format: cell-based; details: time 980.0 sec
[11] = tested on: Calcium-activated potassium channel subunit alpha-1 (Homo sapiens), Q12791 [UNDEFINED MUTATION]; assay: as §1, with “assessed as fold change in maximum relative” for “assessed as maximum relative”, “relative to 4-chloro-7-(trifluoromethyl)-10H-benzofuro[3,2-b]indole-1-carboxylic acid” for “relative to control”; format: cell-based; details: filed as opener, time 980.0 sec
[12] = Oral bioavailability in male Sprague-Dawley rat at 10 mg/kg by LC-MS/MS analysis; format: ADME, organism-based; details: in vivo
[13] = Cmax in male Sprague-Dawley rat at 10 mg/kg, po by LC-MS/MS analysis; format: ADME, organism-based; details: in vivo
[14] = AUClast in male Sprague-Dawley rat at 10 mg/kg, po by LC-MS/MS analysis; format: ADME, organism-based; details: in vivo
[15] = Half-life in male Sprague-Dawley rat at 10 mg/kg, po by LC-MS/MS analysis; format: ADME, organism-based; details: in vivo
[16] = Volume of distribution at steady state in male Sprague-Dawley rat at 10 mg/kg, iv by LC-MS/MS analysis; format: ADME, organism-based; details: in vivo, read-out: Vdss
[17] = Clearance in male Sprague-Dawley rat at 10 mg/kg, iv by LC-MS/MS analysis; format: ADME, organism-based; details: in vivo
[18] = AUClast in male Sprague-Dawley rat at 10 mg/kg, iv by LC-MS/MS analysis; format: ADME, organism-based; details: in vivo
[19] = Half-life in male Sprague-Dawley rat at 10 mg/kg, iv by LC-MS/MS analysis; format: ADME, organism-based; details: in vivo
[20] = Tmax in male Sprague-Dawley rat at 10 mg/kg, po by LC-MS/MS analysis; format: ADME, organism-based; details: in vivo

- Activity [2]: inactive
SMILES: COc1ccc(Oc2c(F)c(F)c(Cl)c(F)c2F)c(O)c1

- Activity [2]: inactive
SMILES: Oc1c(F)c(F)c(Cl)c(F)c1F

- fold change (FC) [9]: 9.7
- remaining at 0.5 h, 1 µM [3]: 83.6%
- Activity ([1]; filed as opener): 100%
- EC50 [5]: 1.58 µM
- remaining at 0.5 h, 1 µM [6]: 35.9%
- Activity ([10]; filed as opener): 41.6%
- fold change (FC) [11]: 2.5
SMILES: Oc1ccc(Oc2c(F)c(F)c(Cl)c(F)c2F)c(O)c1
- Activity (Oocyte): Active

- Activity [1]: 5%
SMILES: Oc1cccc(Oc2c(F)c(F)c(Cl)c(F)c2F)c1

- Activity [1]: 6.1%
SMILES: Oc1ccc(Oc2c(F)c(F)c(Cl)c(F)c2F)cc1

- Activity [2]: inactive
SMILES: COc1ccc(Oc2c(F)c(F)c(Cl)c(F)c2F)c(OC)c1

- Activity [1]: 11.8%
SMILES: Oc1cc(O)cc(Oc2c(F)c(F)c(Cl)c(F)c2F)c1

- Activity [1]: 4.7%
SMILES: Nc1cc(O)ccc1Oc1c(F)c(F)c(C(F)(F)F)c(F)c1F

- Activity ([1]; filed as opener): 75.2%
- Activity [10]: 5.3%
SMILES: Nc1ccc(Oc2c(F)c(F)c(C(F)(F)F)c(F)c2F)c(Cl)c1

The next lines start with the molecule.

SMILES: N#Cc1cc(N)ccc1Oc1c(F)c(F)c(C(F)(F)F)c(F)c1F
- Activity [1]: 8.1%

SMILES: Nc1ccc(Oc2c(F)c(F)c(C(F)(F)F)c(F)c2F)c(C(F)(F)F)c1
- Activity [1]: 38%

SMILES: COc1cc(N)ccc1Oc1c(F)c(F)c(C(F)(F)F)c(F)c1F
- remaining at 0.5 h, 1 µM [3]: 87.1%
- remaining at 1 h, 1 µM [4]: 30%
- EC50 [5]: 1.21 µM
- remaining at 0.5 h, 1 µM [6]: 7.2%
- Papp at 4 h [7]: 73.6 ×10⁻⁶ cm/s
- remaining at 1 h, 1 µM [8]: 88.8%

SMILES: Nc1ccc(Oc2c(F)c(F)c(C(F)(F)F)c(F)c2F)c(OC(F)(F)F)c1
- Activity [1]: 33%

SMILES: O=[N+]([O-])c1cc(O)ccc1Oc1c(F)c(F)c(C(F)(F)F)c(F)c1F
- Activity [1]: 0.1%

SMILES: Nc1ccc(Oc2c(F)c(F)c(C(F)(F)F)c(F)c2F)cn1
- Activity [2]: inactive

SMILES: Nc1ccc(Oc2c(F)c(F)c(C(F)(F)F)c(F)c2F)c(N)c1
- Activity [1]: 10.3%

SMILES: Oc1ccc(Oc2cccc(C(F)(F)F)c2)c(O)c1
- Activity [1]: 5.5%

SMILES: CNc1ccc(Oc2c(F)c(F)c(C(F)(F)F)c(F)c2F)c(O)c1
- remaining at 0.5 h, 1 µM [3]: 76%
- Activity ([1]; filed as opener): 91.7%
- remaining at 1 h, 1 µM [4]: 1.6%
- EC50 [5]: 0.42 µM
- remaining at 0.5 h, 1 µM [6]: 4%
- Activity ([10]; filed as opener): 91.7%
- remaining at 1 h, 1 µM [8]: 4.7%

SMILES: NCCCCNc1ccc(Oc2c(F)c(F)c(C(F)(F)F)c(F)c2F)c(O)c1
- Activity [1]: 18%

SMILES: Oc1ccc(Oc2ccc(Cl)c(C(F)(F)F)c2)c(O)c1
- Activity ([1]; filed as opener): 74.7%

SMILES: Oc1cc(NCCCCN2CCOCC2)ccc1Oc1c(F)c(F)c(C(F)(F)F)c(F)c1F
- Activity [1]: 9.3%

SMILES: Oc1ccc(Oc2cc(Cl)cc(Cl)c2)c(O)c1
- Activity ([1]; filed as opener): 61.5%

SMILES: NCCCNc1ccc(Oc2c(F)c(F)c(C(F)(F)F)c(F)c2F)c(O)c1
- Activity [1]: 2.4%

SMILES: Oc1ccc(Oc2ccc(Cl)c(Cl)c2)c(O)c1
- Activity [1]: 18.6%

SMILES: Oc1ccc(Oc2cc(C(F)(F)F)cc(C(F)(F)F)c2)c(O)c1
- Activity ([1]; filed as opener): 99.3%
- Activity [10]: 23.7%

SMILES: COc1cc(N)ccc1Oc1c(F)c(F)c(C(F)(F)F)c(F)c1F.Cl
- bioavailability [12]: 9.9%
- Cmax [13]: 182 ng/mL
- AUC(0-t) [14]: 668 ng·h/mL
- half-life [15]: 6.4 h
- Vd [16]: 3.5 L/kg
- clearance [17]: 25 mL/min/kg
- AUC(0-t) [18]: 6260 ng·h/mL
- half-life [19]: 2.1 h
- Tmax [20]: 1.2 h

SMILES: Oc1ccc(O)c(O)c1
- Activity [2]: inactive

SMILES: O=[N+]([O-])c1ccc(Oc2c(F)c(F)c(C(F)(F)F)c(F)c2F)c(O)c1
- Activity [1]: 19.3%

SMILES: Fc1c(F)c(C(F)(F)F)c(F)c(F)c1Oc1ccc2[nH]ccc2c1
- Activity [1]: 1%

— ChEMBL document CHEMBL6153133, “Discovery of Diphenyl Ether Derivatives as Novel BKCa Channel Activators: Structure-Activity Relationship, Cryo-EM Complex Structures, and In Vivo Animal Studies” (J Med Chem, 2025)
